Source: patent publication US9879243B2, “Culture medium for cell growth and transfection” (LIFE TECHNOLOGIES CORPORATION, priority 2001, dated 2018)

Assays:
Type in all cases: cell-based, human
293 cells [1] = test: β-galactosidase expression after transfection (pCMV-SPORT-β-gal, LIPOFECTAMINE 2000) of 293 cells in monolayer culture, 24-well plates; conditions: Table 8, replacement compounds 25 μM in test media, 24 hrs post-transfection
Experimental: When cultured in suspension, cells were split to 3×10^5 viable cells per ml at each passage. On the week of transfection cells were seeded at 3×10^5 viable cells per ml. After ˜48 hrs of growth (day 2) cells were vortexed for 30 seconds and counted and appropriate volumes used for transfection as described in procedures below.
In addition, the base media comprises 2.4 g/L NaHCO3, 2.98 g/L Hepes, 4 mM L-glutamine and 3 ml/L PLURONIC F-68 (Invitrogen Corp., Carlsbad, Calif.).
The osmolarity is adjusted to from about 275-310 mOsm, preferably about 280 mOsm and the pH is adjusted to from about 7.0 to about 7.45 preferably about 7.4 respectively.
Three wells were set up for each treatment. A volume of media corresponding to 3×10^6 viable cells was centrifuged. The supernatant was removed and the cells re-suspended in 600 μl test media. Each well of a 24 well plate received 200 μl of the re-suspended cells.
To prepare the nucleic acid for the transfection experiments, 93 μl test media+3 μl DNA+24 μl LIPOFECTAMINE 2000 were combined in a microfuge tube and complexed for 30 minutes. A 40 μl aliquot of complex was added to each well. 250 μl test media was added to each well five hours after addition of complex. The final cell concentration was 1×10^6 viable cells per well; the final DNA concentration was 1 μg per 1×10^6 viable cells and the final LIPOFECTAMINE 2000 concentration was 8 μl per 1×10^6 viable cells.
24 hrs post-transfection, samples were collected for β-galactosidase quantitation. The contents of duplicate wells were pooled (i.e. ˜2×10^6 cells for the assay) for each sample and transferred to a microfuge tube. The cells were centrifuged, the supernatant was removed and the cells were re-suspended in 1 ml of D-PBS. The cells were pelleted a second time and re-suspended in 1 ml of D-PBS. The samples were then stored at −70° C. Prior to the assay for β-galactosidase, samples were freeze-thawed a total of five times.
293 cells were grown in monolayer culture in the presence of the various replacement compounds indicated and transfection experiments performed as described above. The results are shown in Table 8 and the values are β-galactosidase activity expressed as nanograms of β-galactosidase per 2×10^6 cells. A comparison was made between the transfection efficiency of DNA complexes formed in D-MEM medium and DNA complexes formed in test medium. […]
(§1) For cells transfected in 24-well plates, cells densities used were 1×10^6 viable cells per well.

293 cells [2] = test: Growth and adaptation of 293 cells to test media before transfection; conditions: for support of growth at the ZnSO4 concentrations tested: Example 7, ethyl maltol 50 μM, 2-hydroxypyridine 25 μM, DPTA.FeSO4 50 μM, ZnSO4 0.5×-5×
Experimental: 293 cells were grown in monolayer culture in base medium supplemented with the indicated replacement compounds at the concentrations specified in Table 9.

293 cells [3] = test: X-gal in situ staining, % transfection efficiency, 293 cells in 24-well plates; conditions: Example 7
Experimental: The third well of each treatment was used for in situ staining for β-galactosidase activity (i.e., ˜1×10^6 cells).
The transfection efficiency of cells grown in the presence of ZnSO4+ chelating agent as a replacement for insulin was tested at various concentrations of chelator and ZnSO4 and the results are shown in Table 10. Cells were prepared in monolayer culture in base medium containing the indicated supplements and transfected and assayed as described above.
293 cells were grown in monolayer culture in base media supplemented with the indicated chelator and metal salt at the indicated concentrations. The concentration of the chelator is given in μmoles/l and the concentration of the metal salt is given in μgrams/ml. […] The concentration of the cells in the media was 1×10^6 cell/ml, the concentration of DNA used was 1 μg DNA/10^6 cells, the concentration of LIPOFECTAMINE 2000 used was 8 μl/10^6 cells.
as §1

| Molecule | β-galactosidase activity; D-MEM used for complexing, Test media to re-suspend cells (293 cells [1]) | β-galactosidase activity; Test Media used for complexing and to re-suspend cells (293 cells [1]) | growth in the presence of ZnSO4 (293 cells [2]; Example 6, in combination with ZnSO4 instead of insulin) | support of growth at the ZnSO4 concentrations tested (293 cells [2]) | X-gal staining transfection efficiency (293 cells [3]; media with 1× ZnSO4) [%] | X-gal staining transfection efficiency (293 cells [3]; media with insulin) | support of growth (293 cells [2]; Example 6, 100 μM) |
| --- | --- | --- | --- | --- | --- | --- | --- |
| Diethylenetriamine Penta-Acetic Acid•Ferrous Sulfate | 234 nanograms of β-galactosidase per 2×10^6 cells | 720 nanograms of β-galactosidase per 2×10^6 cells | acceptable | supported growth at concentrations of 1×, 2× and 5× ZnSO4, but not at 0.5× |  |  |  |
| CCc1occc(=O)c1O [2-Ethyl-3-Hydroxy-4-Pyrone] | 378 nanograms of β-galactosidase per 2×10^6 cells | 1827 nanograms of β-galactosidase per 2×10^6 cells |  | supported growth at all concentrations of ZnSO4 tested | ~40 | 50-60% | did not support growth |
